According to patent US11078220B2, “High-purity large-scale preparation of stannsoporfin” (Mallinckrodt Hospital Products IP Limited, priority 2006, dated 2021):

Columns and labels:
[1] = Long-term storage stability of high-purity stannsoporfin at 40° C. and 75% relative humidity; format: physicochemical; conditions: 40° C./75% RH
Procedure: (§1) The long-term stability of the compound was studied under two different storage conditions: 25° C. (+/−2° C.) and 60% relative humidity (+/−5%); and 40° C. (+/−2° C.) and 75% relative humidity (+/−5%). Primary packaging for the compound was a 4-mil polyethylene bag and secondary packaging for the compound was a 4 mil polyethylene bag, stored in an HDPE drum.
(§2) Table 5 and Table 6 show stability data for the batch described in Table 3, under the 25° C./60% RH and 40° C./75% RH conditions, respectively. Table 7 and Table 8 show stability data for the batch described in Table 4 under the 25° C./60% RH and 40° C./75% RH conditions, respectively. Data for the zero-month time point was taken from the batch release analysis (the zero time point represents the actual date when samples were placed in the stability test chambers). The samples were analyzed at approximately 3 months and approximately 6 months after the samples were placed under the storage conditions.

[2] = Long-term storage stability of high-purity stannsoporfin at 25° C. and 60% relative humidity; format: physicochemical; conditions: 25° C./60% RH
Procedure: as §1, §2

[3] = batch of Table 3 (0.840 kg), 0 months
[4] = batch of Table 3 (0.840 kg), 3 months
[5] = batch of Table 3 (0.840 kg), 6 months
[6] = batch of Table 4 (1.364 kg), 0 months
[7] = batch of Table 4 (1.364 kg), 3 months
[8] = batch of Table 4 (1.364 kg), 6 months

With “tin (IV) mesoporphyrin IX dichloride [stannsoporfin]” the “HPLC assay (w/w as is)” value [1, 3] was 100.4%, the “HPLC assay (w/w, solvent-free anhydrous basis)” value [1, 3] was 100.7% and the “HPLC purity (impurity peak at RRt retention time 0.72-0.73)” value [1, 3] was 0.06%. The “HPLC purity (total impurities)” value [1, 3] was 03, the “Water content (Karl Fischer, coulometric)” value (“Water content” for short) [1, 3] was “Trace <1%” and the “HPLC assay (w/w as is)” value [1, 4] was 100.9%. For the same substance, the “HPLC assay (w/w, solvent-free anhydrous basis)” value [1, 4] was 101.2%, the “HPLC purity (impurity peak at RRt retention time 0.72-0.73)” value [1, 4] was under 0.05% and the “HPLC purity (total impurities)” value [1, 4] was 0.28. The “Water content” value [1, 4] was <1% (0.2%), the “HPLC assay (w/w as is)” value [1, 5] was 99.6% and the “HPLC assay (w/w, solvent-free anhydrous basis)” value [1, 5] was 99.8%. The “HPLC purity (impurity peak at RRt retention time 0.72-0.73)” value [1, 5] was 0.06%, the “HPLC purity (total impurities)” value [1, 5] was 0.26 and the “Water content” value [1, 5] was <1% (0.1%). The “HPLC assay (w/w as is)” value [1, 6] was 102.3%, the “HPLC assay (w/w, solvent-free anhydrous basis)” value [1, 6] was 102.3% and the “HPLC purity (impurity peak at RRt retention time 0.72-0.73)” value [1, 6] was 0.06%. The “HPLC purity (total impurities)” value [1, 6] was 0.22, the “Water content” value [1, 6] was “Trace < 1%” and the “HPLC assay (w/w as is)” value [1, 7] was 101.0%. For the same substance, the “HPLC assay (w/w, solvent-free anhydrous basis)” value [1, 7] was 101.1%, the “HPLC purity (impurity peak at RRt retention time 0.72-0.73)” value [1, 7] was under 0.05% and the “HPLC purity (total impurities)” value [1, 7] was 0.29. For the same substance, the “Water content” value [1, 7] was <1% (0.1%), the “HPLC assay (w/w as is)” value [1, 8] was 97.7% and the “HPLC assay (w/w, solvent-free anhydrous basis)” value [1, 8] was 97.8%. For the same substance, the “HPLC purity (impurity peak at RRt retention time 0.72-0.73)” value [1, 8] was 0.06%, the “HPLC purity (total impurities)” value [1, 8] was 0.24 and the “Water content” value [1, 8] was <1% (0.1%). The “HPLC assay (w/w as is)” value [2, 3] was 100.4%, the “HPLC assay (w/w, solvent-free anhydrous basis)” value [2, 3] was 100.7% and the “HPLC purity (impurity peak at RRt retention time 0.72-0.73)” value [2, 3] was 0.06%. For the same substance, the “HPLC purity (total impurities)” value [2, 3] was 0.3, the “Water content” value [2, 3] was “Trace < 1%” and the “HPLC assay (w/w as is)” value [2, 4] was 99.6%. The “HPLC assay (w/w, solvent-free anhydrous basis)” value [2, 4] was 99.8%, the “HPLC purity (impurity peak at RRt retention time 0.72-0.73)” value [2, 4] was under 0.05% and the “HPLC purity (total impurities)” value [2, 4] was 0.22. For the same substance, the “Water content” value [2, 4] was <1% (0.1%), the “HPLC assay (w/w as is)” value [2, 5] was 98.2% and the “HPLC assay (w/w, solvent-free anhydrous basis)” value [2, 5] was 98.4%. The “HPLC purity (impurity peak at RRt retention time 0.72-0.73)” value [2, 5] was 0.07%, the “HPLC purity (total impurities)” value [2, 5] was 0.24 and the “Water content” value [2, 5] was <1% (0.1%). For the same substance, the “HPLC assay (w/w as is)” value [2, 6] was 102.3%, the “HPLC assay (w/w, solvent-free anhydrous basis)” value [2, 6] was 102.3% and the “HPLC parity (total impurities)” value [2, 6] was 0.22. The “HPLC purity (impurity peak at RRt retention time 0.72-0.73)” value [2, 6] was 0.06%, the “Water content” value [2, 6] was “Trace < 1%” and the “HPLC assay (w/w as is)” value [2, 7] was 102.0%. For the same substance, the “HPLC assay (w/w, solvent-free anhydrous basis)” value [2, 7] was 102.1%, the “HPLC parity (total impurities)” value [2, 7] was 0.29 and the “HPLC purity (impurity peak at RRt retention time 0.72-0.73)” value [2, 7] was 0.05%. The “Water content” value [2, 7] was <1% (0.1%), the “HPLC assay (w/w as is)” value [2, 8] was 98.4% and the “HPLC assay (w/w, solvent-free anhydrous basis)” value [2, 8] was 98.5%. The “HPLC parity (total impurities)” value [2, 8] was 0.19, the “HPLC purity (impurity peak at RRt retention time 0.72-0.73)” value [2, 8] was 0.05% and the “Water content” value [2, 8] was <1% (0.1%).
